Measurements published in article PMC9969396, “Development of Human Carbonic Anhydrase II Heterobifunctional Degraders” (Journal of Medicinal Chemistry, 2023).

Molecular target: T1, hCAII (Homo sapiens, UniProt P00918+Q96SW2)
T1 construct: HEK293 cells, a line known to abundantly express hCAII; endogenous in cells; host or cells: HEK293
Experiment: single-point hCAII degradation screen in HEK293 cells, western blot
Type: cell-based
Details: 5 μM, 24 h; for activity in single-point screen (hCAII degradation): vs DMSO vehicle
Experimental: Following the confirmation of candidate hCAII’s in vitro activity, candidate degraders 1–10 were evaluated for their degradation of hCAII using HEK293 cells, a line known to abundantly express hCAII.[48] To obtain a preliminary evaluation of the activity of these compounds, an initial single-point screen was performed with HEK293 cells dosed with individual degrader candidates at a final concentration of 5 μM for 24 h prior to cell lysis. The relative abundance of hCAII in whole cell lysates was then evaluated via western blot analysis (see the Experimental Section for details).
Figure 2 Single-point activity screen of degrader candidates 1–10. Western blot analysis of HEK293 cells treated with degrader candidate (5 μM final concentration) or vehicle (DMSO) for 24 h. […] Degraders 4 and 5 were identified as active from this screen. Full images of the western blots are provided within the Supporting Information (Figure S1).
HEK293 cells were cultured in Dulbecco’s modified Eagle’s medium (DMEM, Gibco, 4.5 g/L glucose) supplemented with 10% fetal bovine serum (FBS), 1% sodium pyruvate, and 1% penicillin/streptomycin. Cells were grown at 37 °C in a humidified 5% CO2 atmosphere and regularly tested for mycoplasma.
After reaching 90% confluency, HEK293 cells were trypsinized, counted, and plated with 2 mL media at 2 × 10^6 cells per well on a tissue-culture-treated, 6-well plate. At the appropriate number of hours before reaching ∼90% confluency, cells were treated with DMSO solutions of the appropriate compounds (final concentration 0.5% DMSO per well). Upon reaching 90% confluency, typically 72 h, culture media were removed and the cells were washed with cold Dulbecco’s phosphate-buffered saline (DPBS). Lysis buffer, composed of cell lysis buffer (Cell Signaling Technology, 9803), protease inhibitor cocktail (Cell Signaling Technology, 5872), and 1 mM phenylmethylsulfonylfluoride, was added to each well, and the plates were rocked at 4 °C for 20 min. Cells were then scraped from the bottom of the plates, and the supernatant was collected after spinning down at 14,000g at 4 °C for 10 min and frozen at −80 °C. Lysates were thawed on ice, and the total protein concentration was measured using a Pierce bicinchoninic acid protein assay (Thermo Fisher Scientific, 23225). […] The immunoblot was then analyzed using the ImageJ software as an 8-bit image. The brightness and contrast of the image were adjusted, and the integrated density was calculated for each protein band using the gel lane analysis tool. Relative hCAII expression was calculated by normalizing the hCAII/β-actin ratio in compound-treated wells to the hCAII/β-actin ratio in vehicle (DMSO)-treated wells and indicated as “hCAII Abundance (% DMSO)”.

Row | Structure (SMILES) | protein degradation quantified by western blot [%] | activity in single-point screen (hCAII degradation)
1 | NS(=O)(=O)c1ccc(C(=O)NCCCOCCOCCOCCCNc2cccc3c2C(=O)N(C2CCC(=O)NC2=O)C3=O)cc1 (stereo not shown) [Compound 5, N-(3-(2-(2-(3-((2-(2,6-Dioxopiperidin-3-yl)-1,3-dioxoisoindolin-4-yl)amino)propoxy)ethoxy)ethoxy)propyl)-4-sulfamoylbenzamide] | 85 | active
2 | NS(=O)(=O)c1ccc(C(=O)NCCCOCCCCOCCCNc2cccc3c2C(=O)N(C2CCC(=O)NC2=O)C3=O)cc1 (stereo not shown) [Compound 4, N-(3-(4-(3-((2-(2,6-Dioxopiperidin-3-yl)-1,3-dioxoisoindolin-4-yl)amino)propoxy)butoxy)propyl)-4-sulfamoylbenzamide] | 64 | active
